Measured values as given in patent US12077503B2, “Substituted cyclic amides and their use as herbicides” (FMC CORPORATION, priority 2015, dated 2024).

Legend:
Type in all cases: in vivo
Kochia (Kochia scoparia) [1] = experiment: Test A preemergence; settings: for Plant response rating, Kochia: 125 g ai/ha, visual injury after approximately 10 d; for Plant response rating, Kochia / Kochia plant response rating (0 to 100 scale, 0 is no effect, 100 is complete control): Preemergence; for Kochia plant response rating (0 to 100 scale, 0 is no effect, 100 is complete control): visual injury approx. 10 d
Text: (§1) Seeds of plant species selected from barnyardgrass (Echinochloa crus-galli), Kochia (Kochia scoparia), ragweed (common ragweed, Ambrosia elatior), ryegrass, Italian (Italian ryegrass, Lolium multiflorum), crabgrass, large (Digitaria sanguinalis), giant foxtail (Setaria faberii), green foxtail (Setaria viridis), morningglory (Ipomoea spp.), pigweed (Amaranthus retroflexus), velvetleaf (Abutilon theophrasti), wheat (Triticum aestivum), and corn (Zea mays) were planted into a blend of loam soil and sand and treated preemergence with a directed soil spray using test chemicals formulated in anon-phytotoxic solvent mixture which included a surfactant.
(§2) At the same time, plants selected from these crop and weed species and also blackgrass (Alopecurus myosuroides), and Galium (catchweed bedstraw, Galium aparine) were planted in pots containing the same blend of loam soil and sand and treated with postemergence applications of test chemicals formulated in the same manner. Plants ranged in height from 2 to 10 cm and were in the one- to two-leaf stage for the postemergence treatment. Treated plants and untreated controls were maintained in a greenhouse for approximately 10 d, after which time all treated plants were compared to untreated controls and visually evaluated for injury. Plant response ratings, summarized in Table A, are based on a 0 to 100 scale where 0 is no effect and 100 is complete control. A dash (-) response means no test result.

[2] = system: barnyardgrass (Echinochloa crus-galli); experiment: Test A preemergence; settings: for Plant response rating, Barnyardgrass: 125 g ai/ha, visual injury after approximately 10 d; for Plant response rating, Barnyardgrass / Barnyardgrass plant response rating (0 to 100 scale, 0 is no effect, 100 is complete control): Preemergence; for Barnyardgrass plant response rating (0 to 100 scale, 0 is no effect, 100 is complete control): visual injury approx. 10 d
Text: as §1, §2

[3] = system: giant foxtail (Setaria faberii); experiment: Test A preemergence; settings: for Plant response rating, Foxtail, Giant: 125 g ai/ha, visual injury after approximately 10 d; for Plant response rating, Foxtail, Giant / Foxtail, Giant plant response rating (0 to 100 scale, 0 is no effect, 100 is complete control): Preemergence; for Foxtail, Giant plant response rating (0 to 100 scale, 0 is no effect, 100 is complete control): visual injury approx. 10 d
Text: as §1, §2

[4] = system: pigweed (Amaranthus retroflexus); experiment: Test A preemergence; settings: for Plant response rating, Pigweed: 125 g ai/ha, visual injury after approximately 10 d; for Plant response rating, Pigweed / Pigweed plant response rating (0 to 100 scale, 0 is no effect, 100 is complete control): Preemergence; for Pigweed plant response rating (0 to 100 scale, 0 is no effect, 100 is complete control): visual injury approx. 10 d
Text: as §1, §2

[5] = system: ragweed (common ragweed, Ambrosia elatior); experiment: Test A preemergence; settings: for Plant response rating, Ragweed: 125 g ai/ha, visual injury after approximately 10 d; for Plant response rating, Ragweed / Ragweed plant response rating (0 to 100 scale, 0 is no effect, 100 is complete control): Preemergence; for Ragweed plant response rating (0 to 100 scale, 0 is no effect, 100 is complete control): visual injury approx. 10 d
Text: as §1, §2

[6] = system: ryegrass, Italian (Italian ryegrass, Lolium multiflorum); experiment: Test A preemergence; settings: for Plant response rating, Ryegrass, Italian: 125 g ai/ha, visual injury after approximately 10 d; for Plant response rating, Ryegrass, Italian / Ryegrass, Italian plant response rating (0 to 100 scale, 0 is no effect, 100 is complete control): Preemergence; for Ryegrass, Italian plant response rating (0 to 100 scale, 0 is no effect, 100 is complete control): visual injury approx. 10 d
Text: as §1, §2

[7] = system: Galium (catchweed bedstraw, Galium aparine); experiment: Test A postemergence
Text: as §1, §2

Kochia (Kochia scoparia) [8] = experiment: Test A postemergence
Text: as §1, §2

[9] = system: barnyardgrass (Echinochloa crus-galli); experiment: Test A postemergence
Text: as §1, §2

[10] = system: blackgrass (Alopecurus myosuroides); experiment: Test A postemergence
Text: as §1, §2

corn (Zea mays) = experiment: Test A postemergence
Text: as §1, §2

[11] = system: giant foxtail (Setaria faberii); experiment: Test A postemergence
Text: as §1, §2

[12] = system: pigweed (Amaranthus retroflexus); experiment: Test A postemergence
Text: as §1, §2

[13] = system: ragweed (common ragweed, Ambrosia elatior); experiment: Test A postemergence
Text: as §1, §2

[14] = system: ryegrass, Italian (Italian ryegrass, Lolium multiflorum); experiment: Test A postemergence
Text: as §1, §2

[15] = system: wheat (Triticum aestivum); experiment: Test A postemergence
Text: as §1, §2

[16] = 0 to 100 scale where 0 is no effect and 100 is complete control
[17] = 125 g ai/ha, postemergence, visual rating after approx. 10 d, 0 to 100 scale (0 no effect, 100 complete control)
[18] = Postemergence, 500 g ai/ha, 0 to 100 scale where 0 is no effect and 100 is complete control
[19] = 125 g ai/ha, postemergence, visual injury rating on 0 to 100 scale (0 no effect, 100 complete control), approx. 10 d

| SMILES | Plant response rating, Kochia (Kochia (Kochia scoparia) [1]; [16]) | Kochia plant response rating (0 to 100 scale, 0 is no effect, 100 is complete control) (Kochia (Kochia scoparia) [1]; 500 g ai/ha) | Plant response rating, Barnyardgrass [2, 16] | Barnyardgrass plant response rating (0 to 100 scale, 0 is no effect, 100 is complete control) ([2]; 500 g ai/ha) | Plant response rating, Foxtail, Giant [3, 16] | Foxtail, Giant plant response rating (0 to 100 scale, 0 is no effect, 100 is complete control) ([3]; 500 g ai/ha) | Plant response rating, Pigweed [4, 16] | Pigweed plant response rating (0 to 100 scale, 0 is no effect, 100 is complete control) ([4]; 500 g ai/ha) | Plant response rating, Ragweed [5, 16] | Ragweed plant response rating (0 to 100 scale, 0 is no effect, 100 is complete control) ([5]; 500 g ai/ha) | Plant response rating, Ryegrass, Italian [6, 16] | Ryegrass, Italian plant response rating (0 to 100 scale, 0 is no effect, 100 is complete control) ([6]; 500 g ai/ha) | Plant response rating, Galium [7, 18] | Plant response rating, Kochia (Kochia (Kochia scoparia) [8]; [18]) | Plant response rating, Barnyardgrass [9, 18] | Plant response rating, Blackgrass [10, 18] | Plant response rating, Corn (corn (Zea mays); [18]) | Plant response rating, Foxtail, Giant [11, 18] | Plant response rating, Pigweed [12, 18] | Plant response rating, Ragweed [13, 18] | also measured |
| --- | --- | --- | --- | --- | --- | --- | --- | --- | --- | --- | --- | --- | --- | --- | --- | --- | --- | --- | --- | --- | --- |
| O=C1NC[C@H](c2ccc3sccc3c2)[C@H]1C(=O)Nc1cccc(F)c1F [Compound 1128] |  |  |  |  |  |  |  |  |  |  |  |  |  |  |  |  |  |  |  |  | pest or weed control at 500 g/ha (Kochia (Kochia scoparia) [1]; Bassia scoparia, pre-emergence, 240 h, 500 g ai/ha, preemergence, 0 to 100 scale where 0 is no effect and 100 is complete control, read-out: Kochia plant response rating): 80%; pest or weed control at 500 g/ha ([2]; Echinochloa crus-galli, pre-emergence, 240 h, 500 g ai/ha, preemergence, 0 to 100 scale where 0 is no effect and 100 is complete control, read-out: Barnyardgrass plant response rating): 90%; pest or weed control at 500 g/ha ([3]; Setaria faberi, pre-emergence, 240 h, 500 g ai/ha, preemergence, 0 to 100 scale where 0 is no effect and 100 is complete control, read-out: Foxtail, Giant plant response rating): 90%; pest or weed control at 500 g/ha ([4]; Amaranthus retroflexus, pre-emergence, 240 h, 500 g ai/ha, preemergence, 0 to 100 scale where 0 is no effect and 100 is complete control, read-out: Pigweed plant response rating): 0%; pest or weed control at 500 g/ha ([5]; Ambrosia artemisiifolia, pre-emergence, 240 h, 500 g ai/ha, preemergence, 0 to 100 scale where 0 is no effect and 100 is complete control, read-out: Ragweed plant response rating): 50%; pest or weed control at 500 g/ha ([6]; Lolium multiflorum, pre-emergence, 240 h, 500 g ai/ha, preemergence, 0 to 100 scale where 0 is no effect and 100 is complete control, read-out: Ryegrass, Italian plant response rating): 40%; pest or weed control at 500 g/ha ([7]; Galium, post-emergence, 240 h, 500 g ai/ha, postemergence, 0 to 100 scale, 0 is no effect, 100 is complete control, read-out: Galium plant response rating): 70%; pest or weed control at 500 g/ha (Kochia (Kochia scoparia) [8]; Bassia scoparia, post-emergence, 240 h, 500 g ai/ha, postemergence, 0 to 100 scale, 0 is no effect, 100 is complete control, read-out: Kochia plant response rating): 70%; pest or weed control at 500 g/ha ([9]; Echinochloa crus-galli, post-emergence, 240 h, 500 g ai/ha, postemergence, 0 to 100 scale, 0 is no effect, 100 is complete control, read-out: Barnyardgrass plant response rating): 90%; pest or weed control at 500 g/ha ([10]; Alopecurus myosuroides, post-emergence, 240 h, 500 g ai/ha, postemergence, 0 to 100 scale, 0 is no effect, 100 is complete control, read-out: Blackgrass plant response rating): 50%; plant injury at 500 g/ha (corn (Zea mays); Zea mays, post-emergence, 240 h, 500 g ai/ha, postemergence, 0 to 100 scale, 0 is no effect, 100 is complete control, read-out: Corn plant response rating): 50%; pest or weed control at 500 g/ha ([11]; Setaria faberi, post-emergence, 240 h, 500 g ai/ha, postemergence, 0 to 100 scale, 0 is no effect, 100 is complete control, read-out: Foxtail, Giant plant response rating): 90%; pest or weed control at 500 g/ha ([12]; Amaranthus retroflexus, post-emergence, 240 h, 500 g ai/ha, postemergence, 0 to 100 scale, 0 is no effect, 100 is complete control, read-out: Pigweed plant response rating): 0%; pest or weed control at 500 g/ha ([13]; Ambrosia artemisiifolia, post-emergence, 240 h, 500 g ai/ha, postemergence, 0 to 100 scale, 0 is no effect, 100 is complete control, read-out: Ragweed plant response rating): 50%; pest or weed control at 500 g/ha ([14]; Lolium multiflorum, post-emergence, 240 h, 500 g ai/ha, postemergence, 0 to 100 scale, 0 is no effect, 100 is complete control, read-out: Ryegrass, Italian plant response rating): 30%; plant injury at 500 g/ha ([15]; Triticum aestivum, post-emergence, 240 h, 500 g ai/ha, postemergence, 0 to 100 scale, 0 is no effect, 100 is complete control, read-out: Wheat plant response rating): 0% |
| CN1CC(c2ccc(Br)cc2)C(C(=O)Nc2ccccc2S(C)(=O)=O)C1=O (centres unmarked) [Compound 565] | 70 | 90 | 80 | 90 | 90 | 90 | 70 | 80 | 50 | 50 | 0 | 40 | 60 | 60 | 90 | 60 | 20 | 90 | 60 | 50 | Plant response rating, Galium [7, 17]: 60; Plant response rating, Kochia (Kochia (Kochia scoparia) [8]; [17]): 20; Plant response rating, Barnyardgrass [9, 17]: 80; Plant response rating, Blackgrass [10, 17]: 40; Plant response rating, Corn (corn (Zea mays); [17]): 0; Plant response rating, Foxtail, Giant [11, 17]: 80; Plant response rating, Pigweed [12, 17]: 20; Plant response rating, Ragweed [13, 17]: 0; Plant response rating, Ryegrass, Italian [14, 17]: 20; Plant response rating, Ryegrass, Italian [14, 18]: 30; Plant response rating, Wheat [15, 17]: 0; Plant response rating, Wheat [15, 18]: 40 |
| O=C(Nc1ccccc1F)C1C(=O)N(C2C=CCCC2)CC1c1cccc(C(F)(F)F)c1 (centres unmarked) [Compound 524] | 0 | 0 | 20 | 40 | 40 | 70 | 0 | 0 | 0 | 0 | 0 | 0 | 0 | 0 | 70 | 20 | 0 | 70 | 0 | 0 | Galium plant response rating [7, 19]: 0; Kochia plant response rating (Kochia (Kochia scoparia) [8]; [19]): 0; Barnyardgrass plant response rating [9, 19]: 30; Blackgrass plant response rating [10, 19]: 0; Corn plant response rating (corn (Zea mays); [19]): 0; Foxtail, Giant plant response rating [11, 19]: 30; Pigweed plant response rating [12, 19]: 0; Ragweed plant response rating [13, 19]: 0; Ryegrass, Italian plant response rating [14, 19]: 0; Plant response rating, Ryegrass, Italian [14, 18]: 0; Wheat plant response rating [15, 19]: 0; Plant response rating, Wheat [15, 18]: 0 |
